“And” between values parts separate entries of the source, which are not always exact repeats. Equal entries are not always repeated. Inconclusive results and toxic doses are left out. How the source made its calls: active means survival T/C of 150% or more; inactive means T/C below 125% in these data. Peptide text beside a SMILES is read from it. * marks the point of attachment. Cbz = O=C(OCc1ccccc1)*
Tested on: BDF1 mice, B16 melanoma ip, median survival T/C
Assay: NCI In Vivo Anticancer Drug Screen. Data for tumor model B16 Melanoma (intraperitoneal) in B6D2F1 (BDF1) mice
Settings: endpoint: median survival time, higher = longer survival
Procedure, shortened: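 Compounds were tested in mice carrying transplantable tumors. Survival or tumor size was recorded, and each value is the treated-group measurement (T) divided by that of the vehicle-treated control group (C).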

[1] = dose: 50.0 mg/kg/injection, schedule: Q01DX009 (ip), vehicle: saline with Tween-80
[2] = dose: 100.0 mg/kg/injection, schedule: Q01DX009 (ip), vehicle: saline with Tween-80
[3] = dose: 200.0 mg/kg/injection, schedule: Q01DX009 (ip), vehicle: saline with Tween-80
[4] = dose: 12.5 mg/kg/injection, schedule: Q01DX009 (ip), vehicle: Klucel (hydroxypropylcellulose) (HPC)
[5] = dose: 25.0 mg/kg/injection, schedule: Q01DX009 (ip), vehicle: Klucel (hydroxypropylcellulose) (HPC)
[6] = dose: 50.0 mg/kg/injection, schedule: Q01DX009 (ip), vehicle: Klucel (hydroxypropylcellulose) (HPC)
[7] = dose: 100.0 mg/kg/injection, schedule: Q01DX009 (ip), vehicle: Klucel (hydroxypropylcellulose) (HPC)
[8] = dose: 12.5 mg/kg/injection, schedule: Q01DX009 (ip), vehicle: saline with Tween-80
[9] = dose: 12.5 mg/kg/injection, schedule: Q01DX009 (ip), vehicle: saline
[10] = dose: 25.0 mg/kg/injection, schedule: Q01DX009 (ip), vehicle: saline with Tween-80
[11] = dose: 25.0 mg/kg/injection, schedule: Q01DX009 (ip), vehicle: saline
[12] = dose: 50.0 mg/kg/injection, schedule: Q01DX009 (ip), vehicle: saline
[13] = dose: 100.0 mg/kg/injection, schedule: Q01DX009 (ip), vehicle: saline
[14] = dose: 200.0 mg/kg/injection, schedule: Q01DX009 (ip), vehicle: Klucel (hydroxypropylcellulose) (HPC)
[15] = dose: 16.0 mg/kg/injection, schedule: Q01DX009 (ip), vehicle: saline
[16] = dose: 6.25 mg/kg/injection, schedule: Q01DX009 (ip), vehicle: saline

Measured: T/C

O=C1C=C(c2ccccc2)C(=O)C=C1c1ccccc1
inactive: dose: 6.0 mg/kg/injection, schedule: Q04DX003 (ip), vehicle: gum acacia 100 % of control | dose: 12.0 mg/kg/injection, schedule: Q04DX003 (ip), vehicle: gum acacia 91 % of control | dose: 25.0 mg/kg/injection, schedule: Q04DX003 (ip), vehicle: gum acacia 92 % of control and 93 % of control

OC(CC1(O)C(F)(F)C(F)(F)C1(F)F)c1ccccc1 (centres undefined)
inactive: [1] 107 % of control | [2] 110 % of control | [3] 94 % of control

Clc1ccc2sc3c(c2c1)CCNC3
inactive: [4] 94 % of control | [5] 111 % of control | [6] 111 % of control | [7] 105 % of control

ClCC[N+]12CC[N+](CCCl)(CC1)C2
inactive: [8] 95 % of control and 100 % of control | [9] 112 % of control and 95 % of control | [10] 104 % of control | [11] 109 % of control and 105 % of control | [1] 110 % of control and 116 % of control | [12] 124 % of control and 101 % of control | [13] 101 % of control | dose: 200.0 mg/kg/injection, schedule: Q01DX009 (ip), vehicle: saline 100 % of control | dose: 400.0 mg/kg/injection, schedule: Q01DX009 (ip), vehicle: saline 107 % of control

CC1(C)N=C(N)N=C(N)N1c1cc(Cl)c(Cl)cc1Cl
inactive: [4] 94 % of control | [5] 99 % of control

COC(=O)C1CCCN1C(=O)C(CCCCNC(=O)OCc1ccccc1)NC(=O)OCc1ccccc1 (centres undefined) (Cbz-Lys(Cbz)-Pro-OMe; configuration not given here)
inactive: [10] 94 % of control | [1] 98 % of control | [2] 112 % of control | [3] 108 % of control

C1CC[N-]CC1.CC(=N\O)/C(C)=N/O.CC(=N\O)/C(C)=N/O.[Co+2].[c-]1ccccc1
inactive: [7] 90 % of control | [14] 93 % of control | dose: 400.0 mg/kg/injection, schedule: Q01DX009 (ip), vehicle: Klucel (hydroxypropylcellulose) (HPC) 90 % of control

Cc1cc2cc3cc(C)c(N)cc3nc2cc1N
inactive: dose: 3.12 mg/kg/injection, schedule: Q01DX009 (ip), vehicle: saline with Tween-80 116 % of control | dose: 6.25 mg/kg/injection, schedule: Q01DX009 (ip), vehicle: saline with Tween-80 121 % of control | [10] 119 % of control

FC(F)(F)C(F)(Cl)C(Cl)(Cl)C(F)(F)F (centres undefined)
inactive: dose: 100.0 mg/kg/injection, schedule: Q04DX003 (ip), vehicle: saline 92 % of control | dose: 200.0 mg/kg/injection, schedule: Q04DX003 (ip), vehicle: saline 104 % of control | dose: 400.0 mg/kg/injection, schedule: Q04DX003 (ip), vehicle: saline 97 % of control

NC(C/[N+]([O-])=N/O)C(=O)O (centres undefined)
inactive: dose: 15.6 mg/kg/injection, schedule: Q01DX009 (ip), vehicle: saline 97 % of control | dose: 15.6 mg/kg/injection, schedule: Q01DX009 (ip), vehicle: water 105 % of control | dose: 15.6 mg/kg/injection, schedule: Q04DX003 (ip), vehicle: saline 100 % of control | dose: 15.6 mg/kg/injection, schedule: Q04DX003 (ip), vehicle: water 102 % of control | [15] 117 % of control | dose: 31.3 mg/kg/injection, schedule: Q01DX009 (ip), vehicle: saline 102 % of control and 105 % of control | dose: 31.3 mg/kg/injection, schedule: Q01DX009 (ip), vehicle: water 108 % of control | dose: 31.3 mg/kg/injection, schedule: Q04DX003 (ip), vehicle: saline 97 % of control | dose: 31.3 mg/kg/injection, schedule: Q04DX003 (ip), vehicle: water 97 % of control | dose: 62.5 mg/kg/injection, schedule: Q01DX009 (ip), vehicle: saline 111 % of control | dose: 62.5 mg/kg/injection, schedule: Q01DX009 (ip), vehicle: water 111 % of control | dose: 62.5 mg/kg/injection, schedule: Q04DX003 (ip), vehicle: saline 100 % of control and 95 % of control | dose: 62.5 mg/kg/injection, schedule: Q04DX003 (ip), vehicle: water 108 % of control | dose: 100.0 mg/kg/injection, schedule: Q04DX003 (ip), vehicle: saline with Tween-80 100 % of control | dose: 125.0 mg/kg/injection, schedule: Q04DX003 (ip), vehicle: saline 97 % of control and 111 % of control | dose: 125.0 mg/kg/injection, schedule: Q04DX003 (ip), vehicle: water 111 % of control | dose: 200.0 mg/kg/injection, schedule: Q04DX003 (ip), vehicle: saline with Tween-80 100 % of control | dose: 250.0 mg/kg/injection, schedule: Q04DX003 (ip), vehicle: saline 100 % of control and 109 % of control | dose: 250.0 mg/kg/injection, schedule: Q04DX003 (ip), vehicle: water 111 % of control | dose: 400.0 mg/kg/injection, schedule: Q04DX003 (ip), vehicle: saline with Tween-80 106 % of control | dose: 500.0 mg/kg/injection, schedule: Q04DX003 (ip), vehicle: saline 107 % of control | dose: 500.0 mg/kg/injection, schedule: Q04DX003 (ip), vehicle: water 97 % of control

CNc1ncnc2c1cnn2C
inactive: dose: 10.0 mg/kg/injection, schedule: Q01DX009 (ip), vehicle: Klucel (hydroxypropylcellulose) (HPC) 97 % of control | dose: 20.0 mg/kg/injection, schedule: Q01DX009 (ip), vehicle: Klucel (hydroxypropylcellulose) (HPC) 89 % of control | dose: 40.0 mg/kg/injection, schedule: Q01DX009 (ip), vehicle: Klucel (hydroxypropylcellulose) (HPC) 89 % of control

CCN1CC(CCN2CCOCC2)C(c2ccccc2)(c2ccccc2)C1=O (centres undefined)
inactive: [16] 91 % of control | [9] 104 % of control | [11] 100 % of control | [12] 102 % of control | [13] 100 % of control

c1ccc(-c2cnoc2-c2ccccc2)cc1
inactive: [6] 100 % of control | [7] 107 % of control | [14] 100 % of control

C1CC[N-]CC1.C1CC[N-]CC1.C1CC[N-]CC1.[Cl][Rh]([Cl])[Cl]
inactive: dose: 2.0 mg/kg/injection, schedule: Q01DX009 (ip), vehicle: saline 93 % of control | dose: 4.0 mg/kg/injection, schedule: Q01DX009 (ip), vehicle: saline 99 % of control | [16] 109 % of control | dose: 6.25 mg/kg/injection, schedule: Q01DX009 (ip), vehicle: suspension in saline 103 % of control | dose: 8.0 mg/kg/injection, schedule: Q01DX009 (ip), vehicle: saline 103 % of control | [8] 98 % of control | dose: 12.5 mg/kg/injection, schedule: Q01DX009 (ip), vehicle: suspension in saline 103 % of control | [15] 104 % of control | [10] 87 % of control | dose: 25.0 mg/kg/injection, schedule: Q01DX009 (ip), vehicle: suspension in saline 110 % of control | dose: 32.0 mg/kg/injection, schedule: Q01DX009 (ip), vehicle: saline 121 % of control | [1] 93 % of control | dose: 50.0 mg/kg/injection, schedule: Q01DX009 (ip), vehicle: suspension in saline 110 % of control | [2] 94 % of control | dose: 100.0 mg/kg/injection, schedule: Q01DX009 (ip), vehicle: suspension in saline 115 % of control | [3] 100 % of control | dose: 200.0 mg/kg/injection, schedule: Q01DX009 (ip), vehicle: suspension in saline 112 % of control

From PubChem BioAssay AID192 (DTP/NCI, 2004)
